Results taken from publication PMC2874645 (Aquatic toxicology (Amsterdam, Netherlands), 2010).

Molecular target: T1, farnesoid X receptor alpha (Fxrα) (Oryzias latipes, UniProt H2M6M7)
T1 sequence (H2M6M7 201-485): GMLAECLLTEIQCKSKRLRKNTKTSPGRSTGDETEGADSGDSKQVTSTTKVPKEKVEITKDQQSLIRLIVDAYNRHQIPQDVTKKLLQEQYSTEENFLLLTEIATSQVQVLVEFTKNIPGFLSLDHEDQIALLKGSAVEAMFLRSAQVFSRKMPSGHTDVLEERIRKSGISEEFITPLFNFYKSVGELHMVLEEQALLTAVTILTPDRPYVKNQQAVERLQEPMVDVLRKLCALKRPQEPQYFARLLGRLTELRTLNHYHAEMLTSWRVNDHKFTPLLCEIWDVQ
T1 sequence (Q9UBK2 1-798 partner): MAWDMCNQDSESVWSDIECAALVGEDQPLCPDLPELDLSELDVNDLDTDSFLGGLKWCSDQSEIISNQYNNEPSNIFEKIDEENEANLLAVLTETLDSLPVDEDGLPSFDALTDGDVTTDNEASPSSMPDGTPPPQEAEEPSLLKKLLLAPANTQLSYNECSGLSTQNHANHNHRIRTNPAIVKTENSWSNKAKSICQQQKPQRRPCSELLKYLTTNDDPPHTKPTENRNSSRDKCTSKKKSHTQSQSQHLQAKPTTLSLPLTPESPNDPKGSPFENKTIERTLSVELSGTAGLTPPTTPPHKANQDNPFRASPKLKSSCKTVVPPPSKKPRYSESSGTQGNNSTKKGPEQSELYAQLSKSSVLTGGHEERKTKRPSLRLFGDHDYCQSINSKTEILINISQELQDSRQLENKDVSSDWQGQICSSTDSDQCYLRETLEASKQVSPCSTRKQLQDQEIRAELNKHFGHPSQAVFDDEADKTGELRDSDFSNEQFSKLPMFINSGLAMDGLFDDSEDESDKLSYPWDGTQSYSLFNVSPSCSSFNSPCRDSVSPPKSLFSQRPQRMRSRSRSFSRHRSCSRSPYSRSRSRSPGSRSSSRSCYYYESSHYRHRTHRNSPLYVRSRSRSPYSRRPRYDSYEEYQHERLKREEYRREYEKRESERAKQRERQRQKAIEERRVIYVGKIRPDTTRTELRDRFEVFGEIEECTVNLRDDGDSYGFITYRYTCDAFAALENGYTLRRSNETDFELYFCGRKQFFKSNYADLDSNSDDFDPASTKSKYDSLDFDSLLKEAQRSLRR
Experiment: Gal4-LBD luciferase reporter in PLHC-1 cells at […]
Details: read-out: Gal4-LBD luciferase reporter in PLHC-1 cells at 100 μM

Compound	fold induction at 100 µM
C[C@H](CCC(=O)NCCS(=O)(=O)O)[C@H]1CC[C@H]2[C@@H]3CC[C@@H]4C[C@H](O)CC[C@]4(C)[C@H]3CC[C@]12C [taurine conjugate of LCA]	10.5
C[C@H](CCC(=O)O)[C@H]1CC[C@H]2[C@@H]3CC[C@@H]4C[C@H](O)CC[C@]4(C)[C@H]3CC[C@]12C [lithocholic acid]	10.7
